# Measured values from patent US6897228B2, “Pyridoxine and pyridoxal analogues: new uses” (Medicure International Inc., priority 2000, dated 2005).
# How the values were obtained:
# [1] = tested on: platelets (platelet rich plasma); experiment: Inhibition of platelet aggregation (aggregometer, platelet rich plasma); type: cell-based; conditions: for Extent of aggregation as a percentage amplitude, 1 μg/mL collagen: agonist 1 μg/mL collagen; for Extent of aggregation as a percentage amplitude, 4 μM ADP: agonist 4 μM ADP; for Extent of aggregation as a percentage amplitude, 5 μg/mL collagen: agonist 5 μg/mL collagen; for Extent of aggregation as a percentage amplitude, 12 μM TRAP: agonist 12 μM TRAP
# Method: Platelet rich plasma (PRP) was obtained by drawing whole blood into sodium citrate tubes (3.2%) and centrifuging at 700 rpm for 10 minutes. Platelet poor plasma (PPP) was obtained by centrifuging the remainder of the sample ntil the platelets were removed (3200 rpm for 10 minutes). The PRP was adjusted to a count of 280×10^9/L using a mixture of PRP and PPP. The incubation mixture consisted of 200 μL of platelets and 25 μL of the appropriate compound (18 mM stock for a final concentration of 2 mM and 4.5 mM stock for a final concentration of 500 μM), rendering an approximate final platelet count in the incubation mixture of 250×10^9/L. After incubation (30 minutes at room temperature, the cuvettes were incubated for 3 minutes at 37° C., transferred to the mixing wells and after the baselines transmittances were measured in an aggregometer (Chrono-Log 4), 25 μL of agonist was added to give a final concentration of 4 μM ADP, 1 μg/mL collagen, 5 μg/mL collagen or 12 μM thrombin receptor activating peptide (TRAP). Final transmittances were then measured in the aggregometer (lower percent transmittance represents higher aggregation). […] Table 24-1 gives the results of the extent of aggregation for several compounds as percentage amplitude read directly from the aggregometer.
# [2] = tested on: male Wistar rats, LAD occlusion and reperfusion; experiment: Rat cardiac ischemia reperfusion model; type: in vivo
# Method: Seventy-nine male Wistar rats (200-300 g, Tuck, Rayleigh, Essex, U.K.) were anesthetized with thiopentone sodium (Intraval®, 120 mg/kg i.p.; Rhone-Merrieux, Essex, U.K.). The rats were tracheotomized, intubated and ventilated with a Harvard ventilator (70 strokes/min, tidal volume: 8-10 ml/kg, inspiratory oxygen concentration: 30%). Body temperature was maintained at 38±1° C. The right carotid artery was cannulated and connected to a pressure transducer (Spectramed, P23XL) to monitor mean arterial blood pressure (MAP) and heart rate (HR), which were continuously recorded on a 4-channel Grass 7D polygraph recorder (Grass, Mass., U.S.A.). The right jugular vein was cannulated for the administration of drugs. Subsequently, a lateral thoracotomy was performed and the heart was suspended in a temporary pericardial cradle. A snare occluder was placed around the left anterior descending coronary artery (LAD). After completion of the surgical procedure the animals were allowed to stabilize for 30 min before LAD ligation. The coronary artery was occluded at time 0 by tightening of the occluder. After 25 min of acute myocardial ischemia, the occluder was re-opened to allow the reperfusion for 2 h. Following the 2 h reperfusion period, the coronary artery was re-occluded and Evans Blue dye (1 ml of 2% w/v) was injected into the left ventricle, via the right carotid artery cannula, to distinguish between perfused and non-perfused area at risk (AR) sections of the heart. The Evans Blue solution stains the perfused myocardium, while the occluded vascular bed remains uncolored. The animals were killed with an overdose of anesthetic and the heart excised. It was sectioned into slices of 3-4 mm, the right ventricular wall was removed, and the AR (pink) was separated from the non-ischemic (blue) area. The AR was cut into small pieces and incubated with p-nitroblue tetrazolium (NBT, 0.5 mg/ml) for 40 min at 37° C. In the presence of intact dehydrogenase enzyme systems (viable myocardium), nitro-blue tetrazolium (NBT) forms a dark blue formazan, whilst areas of necrosis lack dehydrogenase activity and therefore fail to stain. Pieces were separated according to staining and weighed to determine the infarct size as a percentage of the weight of the AR.
# The following experimental groups were studied: • (1) Sham-operation (no occlusion of the LAD) plus administration of saline (Sham-Saline, 1 ml/kg i.v. n=9). • (2) LAD-occlusion (25 min) and reperfusion (2 h) plus administration of saline (myocardial infarction (“MI”)-Saline; 1 ml/kg i.v. bolus, 5 min prior to LAD occlusion) (n=10). • (3) LAD-occlusion and reperfusion plus administration of XL (25 mg/kg i.v. bolus at 5 min prior to LAD occlusion) (n=10).
# All data were expressed as mean±s.e.mean of n observations, where n represented the number of animals studied. Infarct size was analyzed by 1-factorial ANOVA, followed by a Bonferroni's post hoc test for multiple comparisons. Hemodynamic data were analyzed by 2-way ANOVA followed by a Bonferroni's test. A P-value of less than 0.05 was considered to be statistically significant (when compared to Ml-Saline).
# [3] = tested on: Platelets from HIT patients; experiment: Heparin-induced aggregation and ATP release of platelets from HIT patients; type: cell-based, human
# Excerpt: XL was capable of inhibiting the aggregation of platelets drawn from patients known to have heparin induced thrombocytopenia (HIT). Platelets from HIT patients were challenged with 0.5 U/ml concentration of heparin in the presence and absence of drug. […] XL is useful as an antiplatelet treatment for HIT patients who cannot be administered heparin due to the immune reaction with heparin that leads to aggregation rather than thrombolysis.
# Platelets were drawn from HIT patients and challenged with heparin to a final concentration of 0.5 U/ml of low molecular weight heparin, in the presence and absence of the drug. […] ATP was detected in a lumi aggregometor (Chronolog Corp.). A luciferin-luciferase mixture was used to detect ATP release. The luciferin-luciferase mixture was previously calibrated to a known amount of ATP. Thus a spike in ATP release indicated platelet aggregation. As shown by the data, HIT patents have a large amplitude release when there is no XL compound present. When XL compound is present it inhibits this characteristic release of ATP.
# Low heparin is low molecular weight heparin and high heparin is unfractionated heparin. The presence of low molecular weight heparin will cause platelet aggregation. All samples were treated with a constant final concentration of heparin; 0.5 U/ml—low and 100 U/ml high. HIT causes platelet aggregation in the Low Concentration of Heparin only, as well as a ration of >5.0 when comparing the Low/High concentration of Heparin.
# [4] = 25 mg/kg i.v. bolus t = −5 mins, Baseline
# [5] = 25 mg/kg i.v. bolus, Occlusion 15 mins
# [6] = 25 mg/kg i.v. bolus, Occlusion 25 mins
# [7] = 25 mg/kg i.v. bolus, Reperfusion 60 mins
# [8] = 25 mg/kg i.v. bolus, Reperfusion 120 mins
smiles,measurement,setting,value
Cc1ncc(CNc2ccc(-c3ccc(C(=N)N)cc3)cc2)c(CO)c1O [Compound XL],"Extent of aggregation as a percentage amplitude, 1 μg/mL collagen",[1]; compound 500 μM,4%
same,"Extent of aggregation as a percentage amplitude, 4 μM ADP",[1]; compound 500 μM,9%
same,"Extent of aggregation as a percentage amplitude, 5 μg/mL collagen",[1]; compound 500 μM,52%
same,"Extent of aggregation as a percentage amplitude, 12 μM TRAP",[1]; compound 500 μM,3%
same,"Extent of aggregation as a percentage amplitude, 1 μg/mL collagen",[1]; compound 2 mM,4%
same,"Extent of aggregation as a percentage amplitude, 4 μM ADP",[1]; compound 2 mM,4%
same,"Extent of aggregation as a percentage amplitude, 5 μg/mL collagen",[1]; compound 2 mM,5%
same,"Extent of aggregation as a percentage amplitude, 12 μM TRAP",[1]; compound 2 mM,4%
same,HR (heart rate),[2]; [4],443 ± 9 beats per min
same,MAP (mean arterial pressure),[2]; [4],121 ± 7 mmHg
same,PRI (pressure rate index),[2]; [4],54 ± 3 mmHg/min · 10^−3
same,infarct size (percentage of the area at risk),"[2]; 25 mg/kg i.v. bolus, 5 minutes before regional ischemia, P<0.05, MI-Saline 48±3% of the AR",significant reduction
same,HR (heart rate),[2]; [5],435 ± 11 beats per min
same,MAP (mean arterial pressure),[2]; [5],119 ± 6 mmHg
same,PRI (pressure rate index),[2]; [5],52 ± 3 mmHg/min · 10^−3
same,HR (heart rate),[2]; [6],460 ± 10 beats per min
same,MAP (mean arterial pressure),[2]; [6],118 ± 6 mmHg
same,PRI (pressure rate index),[2]; [6],55 ± 3 mmHg/min · 10^−3
same,HR (heart rate),[2]; [7],412 ± 10 beats per min
same,MAP (mean arterial pressure),[2]; [7],89 ± 8 mmHg
same,PRI (pressure rate index),[2]; [7],36 ± 3 mmHg/min · 10^−3
same,HR (heart rate),[2]; [8],414 ± 13 beats per min
same,MAP (mean arterial pressure),[2]; [8],70 ± 7 mmHg
same,PRI (pressure rate index),[2]; [8],29 ± 3 mmHg/min · 10^−3
same,fall in MAP compared with MI-rats treated with Saline,"[2]; 25 mg/kg i.v., P>0.05",similar
same,fall in PRI compared with MI-rats treated with Saline,"[2]; 25 mg/kg i.v., P>0.05",similar
same,effect on HR,"[2]; rats subjected to regional myocardial ischemia and reperfusion, P>0.05",no significant effect
same,effects of heparin induced thrombocytopenia (HIT),[3]; 500 micromolar,completely suppress
same,aggregation of platelets from HIT patients,"[3]; 500 micromolar, 0.5 U/ml heparin",completely suppress
same,Amplitude of ATP release spike (low Heparin),"[3]; Patient 1, 500 μM, 0.5 U/ml low heparin, without drug 363",14
same,Ratio of Low/High Heparin,"[3]; Patient 1, 500 μM, without drug 42.4, HIT ratio >5.0",1.9
same,Aggregation (Low Heparin),"[3]; Patient 1, 500 μM, without drug Present",Absent
same,Aggregation (Low Heparin),"[3]; Patient 1, 2 mM",Absent
same,Amplitude of ATP release spike (low Heparin),"[3]; Patient 1, 2 mM",28
same,Ratio of Low/High Heparin,"[3]; Patient 1, 2 mM",2.7
same,Ratio of Low/High Heparin,"[3]; Patient 2, 500 μM, without drug 37.6",1.6
same,Amplitude of ATP release spike (low Heparin),"[3]; Patient 2, 500 μM, without drug 286",11
same,Aggregation (Low Heparin),"[3]; Patient 2, 500 μM, without drug Present",Absent
same,Aggregation (Low Heparin),"[3]; Patient 2, 2 mM",Absent
same,Amplitude of ATP release spike (low Heparin),"[3]; Patient 2, 2 mM",12
same,Ratio of Low/High Heparin,"[3]; Patient 2, 2 mM",1.6
same,characteristic release of ATP of HIT platelets,"[3]; heparin challenge, lumi aggregometer",inhibits
